Here are results for one substance from patent publication US10144929B2, “Polypeptide inhibitors of Smad3 polypeptide activities” (Mayo Foundation for Medical Education and Research, priority 2016, dated 2018).

Series [1] is described as follows: Liver enzymes and inflammatory cells in blood of saline or BLM mice. Type of series: in vivo, C57BL/6 mice. The conditions noted are these: 1 mg/kg daily from day 14; blood at days 0, 14, 28. Here is the method:
(§1) FIG. 12. C57BL/6 mice received intratracheal instillation of saline or bleomycin (BLM). On day 14, all animals began daily treatment with either vehicle (methocel/saline) or 1 mg/kg of TAT-SH3-2. Blood samples were obtained at days 0, 14, and 28 from the facial vein of unanesthetized animals and assessed for effect on the indicated liver enzymes and inflammatory cells. Quantification of lymphocytes, monocytes, and neutrophils were measured using a VetScan HM5 Analyzer. Serum levels (U/L, units per liter; g/dL, grams per deciliter) of alkaline phosphatase (ALP), alanine aminotransferase (ALT), and albumin were determined using a Piccolo Xpress Chemistry analyzer. Data are presented as mean+/−SEM of n=5.
as §1, with “C57BL/6” for “FIG. 12. C57BL/6”, “analyzer.” for “analyzer. Data are presented as mean+/−SEM of n=5.”

The subject of series [2] is adenovirus-TGFβ models of pulmonary fibrosis. Briefly: Adenovirus-TGFβ model of pulmonary fibrosis. In kind it is in vivo, Mice. The note with it: 1 mg/kg daily from day 21. Here is the method:
FIGS. 13A-C. Mice were infected with 1×10^8 pfu adenovirus particles expressing control (GFP) or active TGFβ by tracheal instillation. On day 21, all animals began daily treatment with either vehicle (methocel/saline) or 1 mg/kg of the indicated TAT polypeptide. (A) On days 21 and 35, peripheral blood oxygen was determined. (B and C) Mice were sacrificed on day 39 and processed for lung hydroxyproline content (B) or qPCR expression of the indicated genes (C) (CTGF, connective tissue growth factor; α-SMA, alpha smooth muscle actin; Col Iα1, collagen Iα1). For panels A-C, data reflect mean+/−SEM of n=8 and n=16 for adenovirus-GFP and adenovirus-TGFβ, respectively. *P<0.05, **P<0.001, ***P<0.0005.
Mice were infected with 1×10^8 pfu adenovirus particles expressing control (GFP) or active TGFβ by tracheal instillation. On day 21, all animals began daily treatment with either vehicle (methocel/saline) or 1 mg/kg of the indicated TAT polypeptide. On days 21 and 35, peripheral blood oxygen was determined. Mice were sacrificed on day 39 and processed for lung hydroxyproline content or qPCR expression of CTGF (connective tissue growth factor), α-SMA (alpha smooth muscle actin), and Col Iα1 (collagen Iα1).

In a further series the test system is CTS SSCT fibroblasts. Briefly: TGF-β responsive gene expression in CTS subsynovial connective tissue fibroblasts (qRT-PCR). Type of series: cell-based, human. The note with it: 1.5 μM, 90 minutes pretreatment, 2 ng/mL TGF-β 24 hours. From the text: FIG. 8 is a graph plotting the expression of CTGF. TGFβ stimulated CTGF gene expression was examined in subsynovial connective tissue as in FIGS. 3D and 4B following addition of TAT-SH3-2 (SNX9 peptide) or TAT-SH3-2M (Control peptide). The results were normalized to control treatments without TGFβ.
FIG. 9 is a graph plotting the expression of PAI-1 by cells exposed to the indicated treatments. TGFβ stimulated PAI-1 gene expression was examined in subsynovial connective tissue as in FIG. 8.
Fibroblasts were harvested from CTS patient SSCT tissue (n=3) who had carpal tunnel release surgery as described elsewhere (Gingery et al., J. Orthop. Res., 32(11):1444-50 (2014)). The CTS SSCT fibroblasts were cultured in Minimum Essential Media (MEM) supplemented with 10% fetal bovine serum (FBS) and 1% antibiotic/antimycotic. […]
Total RNA was isolated gene expression was evaluated using quantitative real-time polymerase chain reaction (qRT-PCR) as described elsewhere (Gingery et al., J. Orthop. Res., 32(11):1444-50 (2014)). TGF-β responsive genes (connective tissue growth factor (CTGF) and plasminogen activator inhibitor-1 (PAI-1)) were evaluated with TATA binding protein as the housekeeping gene.
Statistical analysis of qRT-PCR gene expression was normalized to control, and significance was determined by unpaired Student's t-test for each gene. […]

Series [3] has as its system Normal human lung fibroblasts (NHLF) or lung fibroblasts from idiopathic pulmonary fibrosis (IPF) patients. Briefly: Profibrotic responses in human lung fibroblasts (F-actin, Western, qPCR). In kind it is cell-based. The conditions noted are these: TGFβ 5 ng/mL 24 hours. How it is done:
FIGS. 11A-C. TAT-SH3-2 inhibits profibrotic responses in human lung fibroblasts. (A) Normal human lung fibroblasts (NHLF) or lung fibroblasts from idiopathic pulmonary fibrosis (IPF) patients were transduced with the indicated TAT polypeptide. TGFβ (5 ng/mL) or SB431542 (10 μM) was then added for an additional 24 hours. Images were obtained on a LSM510 confocal microscope following F-actin labeling with phalloidin-TRITC and DAPI nuclei staining. Scale bar: 10 μm. (B) Western analysis for the indicated polypeptides (α-SMA, alpha smooth muscle actin; CTGF, connective tissue growth factor; and GAPDH, glyceraldehyde phosphate dehydrogenase) subsequent to TAT polypeptide transduction and 24 hour treatment in the absence (−) or presence (+) of TGFβ (5 ng/mL) or SB431542 (10 μM). (C) NHLF or IPF fibroblasts were treated as in (A), and qPCR was performed as described herein. Results represent mean±SEM from three independent experiments. *P<0.05, **P<0.005, *** P<0.001.
Normal human lung fibroblasts (NHLF) or lung fibroblasts from idiopathic pulmonary fibrosis (IPF) patients were transduced with the indicated TAT polypeptide. TGFβ (5 ng/mL) or SB431542 (10 μM) was then added for an additional 24 hours. Images were obtained on a LSM510 confocal microscope following F-actin labeling with phalloidin-TRITC and DAPI nuclei staining. […]

Regarding “TAT-SH3-2: TAT-SNX9(SH3) fusion polypeptide having SNX9 amino acids 21-51 (31 mer) (TVNEGEIITITNPDVGGGWLEGRNIKGERGL; left off: small tags and cut ends)”, in series [1], the “inflammatory cell recruitment (lymphocytes, monocytes, neutrophils)” value is reported as “no demonstrable effect” and the “murine liver enzymes (ALP, ALT, albumin)” value is “no demonstrable effect”. Also, the “lung function (peripheral blood oxygen)” value in series [2] is recorded as “stabilized lung function”. Moreover, the “expression of PAI-1” value with CTS SSCT fibroblasts is on record as “No significant differences”. Moreover, the CTGF gene expression result with CTS SSCT fibroblasts (compared with vehicle, P<0.05) is “down regulated”. In addition, the “profibrotic responses in human lung fibroblasts” value in series [3] is “inhibited profibrotic responses”.
